Data taken from US20090155228A1, “COMPOUNDS, KITS AND METHODS FOR CONFERRING CYTOPROTECTION” (priority 2006, published 2009).
Where “and” joins values, the source holds several entries; their conditions need not be identical. Identical values can stand only once.

Tests used:
[1] = tested on: PPARd; assay: RT-Q-PCR PPARd transcript in MM6 cells after RNA interference; format: cell-based; settings: MM6 cells electroporated with 1.5 μg siRNA
Procedure: (§1) RNA interference—For siRNA delivery the AMAXA's Nucleofection technology (AMAXA) was applied. MM6 cells (1×10^6) were harvested and electroporated with 1.5 μg siRNA using the Cell line nucleofector kit V (AMAXA), program v-001. Applicants used a previously described PPARg specific siRNA sequence (Kelly, D. et al. (2004) Nat Immunol 5, 104-112): […]-d(TT) (SEQ ID NO. 10). As a negative control, Silencer Negative Control 1 siRNA (Ambion) was used.
(§2) Cell culture and ligand treatment—Monocytes (98% CD14+) were obtained from buffy coats by Ficoll gradient centrifugation and immunomagnetic cell separation using anti-CD14-conjugated microbeads (VarioMACS; Miltenyi Biotec). DCs were prepared as described previously (Szatmari, I. et al. (2004) Immunity 21, 95-106). In brief, monocytes were resuspended into six-well culture dishes at a density of 1.5×10^6 cells/ml and cultured in RPMI 1640 supplemented with 10% FBS (Invitrogen), containing 800 U/ml GM-CSF (Leucomax) and 500 U/ml IL-4 (Peprotech). Cells were cultured for 5 or 6 days (unless otherwise indicated) and the IL-4 and GM-CSF addition was repeated at day 3. Ligands or vehicle control (50% DMSO/ethanol) were added to the cell culture from the first day on. MonoMac-6 (MM6) cells were a kind gift of E. Duda (Biological Research Center, Szeged, Hungary). These cells were cultured in RPMI 1640 supplemented with 10% FBS.

[2] = tested on: FABP4; assay: RT-Q-PCR FABP4 transcript in MM6 cells; format: cell-based; settings: after RSG alone or with LG268, 24 h
Procedure: as §1, §2

[3] = tested on: PPARg; assay: RT-Q-PCR PPARg transcript in MM6 cells after RNA interference; format: cell-based; settings: MM6 cells electroporated with 1.5 μg siRNA
Procedure: as §1, §2

[4] = tested on: ABCG2; assay: RT-Q-PCR ABCG2 transcript in MM6 cells; format: cell-based; settings: after RSG alone or with LG268, 24 h
Procedure: as §1, §2

[5] = tested on: ABCG2; assay: Mitoxantrone uptake in DCs by FACS; format: cell-based, human; settings: 30 min
Procedure: Measurement of mitoxantrone uptake by FACS analyses—Cells were resuspended in phenol red free HPMI medium containing the desired fluorescent compound (20 μM mitoxantrone) with or without KO143 (1 μM) and incubated at 37° C. for 30 min, Thereafter the cells were washed with cold HPMI and subjected to flow cytometric analyses. The cells were assessed for fluorescence intensity with a FACSCalibur cytometer (Beckton Dickinson).

[6] = tested on: CD86; assay: FACS cell surface expression of CD86 on DCs; format: cell-based, human; settings: PPARg activated DCs (2.5 μM RSG) with 1 μM KO143
Procedure: (§3) FACS analysis—Cell staining was performed using FITC- or PE-conjugated monoclonal antibodies: Labeled antibodies for flow cytometry included anti-CD1a-PE, CD1d-PE, CD80-PE, CD86-PE and isotype-matched controls (BD PharMingen). For the ABCG2 detection cells were fixed with 1% paraformaldehyde for 5 min, then incubated with unlabeled anti-ABCG2 (5D3) or isotype-matched control (R and D system) antibody for 30 min at 37° C., followed by staining with FITC-labeled anti-mouse antibody (BD PharMingen). The fluorescence of labeled cells was measured by using a FACSCalibur flow cytometer (Beckton Dickinson).

[7] = tested on: FABP4; assay: RT-Q-PCR FABP4 transcript level in monocyte-derived DCs; format: cell-based, human
Procedure: as §2

[8] = tested on: DCs; settings: MTT
Procedure: Cytotoxicity assay—Cytotoxicity assays were carried out using the MTT assay. Briefly, cells were plated in 96-well plates at a density of 10^5 cells per well. Mitoxantrone at various concentrations with or without KO143 was added to DCs and cells were incubated at 37° C. for 48 h. After incubation, cytotoxicity was assessed by using the MTT assay.

[9] = tested on: CD1d; assay: FACS cell surface expression of CD1d on DCs; format: cell-based, human; settings: PPARg activated DCs (2.5 μM RSG) with 1 μM KO143
Procedure: as §3

[10] = tested on: ABCG2; assay: Hoechst 33342 retention in DCs by CLSM and FACS; format: cell-based, human; settings: stimulated DCs, 1 μM KO143
Procedure: Measurement of Hoechst retention by CLSM and FACS—DCs were plated on Lab-Tek coverslip chambers. Cells were incubated with 0.5 μg/ml Hoechst 33342 for 1 h at 37° C. with or without KO143 (1 μM), then subjected to microscopic analysis. Hoechst fluorescence was measured on a Zeiss LSM 510 confocal microscope with a Plan-Apochromat 60× (NA 1.4) oil immersion objective using maximal detection pinhole diameter (1 mm) to get signal from the whole depth of the nucleus. Hoechst was excited by the 351 and 364 nm lines of an Ar ion laser, emission was measured through a 385-to-470 nm bandpass filter.
Hoechst content was also measured on a Becton Dickinson FACSVantage flow cytometer. Hoechst fluorescence was excited by the 351 and 364 nm lines and the blue and red Hoechst signals were detected through 402-to-446 nm and >650 nm filters, respectively.

[11] = tested on: CD1a; assay: RT-Q-PCR CD1a transcript level in DCs; format: cell-based, human; settings: PPARg activated DCs with 1 μM KO143; relative to cyclophilin A
Procedure: as §2

[12] = tested on: CD80; assay: FACS cell surface expression of CD80 on DCs; format: cell-based, human; settings: PPARg activated DCs (2.5 μM RSG) with 1 μM KO143
Procedure: as §3

[13] = tested on: CD1a; assay: FACS cell surface expression of CD1a on DCs; format: cell-based, human; settings: PPARg activated DCs (2.5 μM RSG) with 1 μM KO143
Procedure: as §3

[14] = patients treated with 4 mg RSG; cited from earlier work
[15] = tested on: ABCG2; assay: Flow cytometry of ABCG2 cell surface expression in DCs (5D3 antibody); format: cell-based, human; settings: DCs treated with RSG plus GW9662
Procedure: as §3

[16] = tested on: ABCG2; assay: RT-Q-PCR ABCG2 transcript level in monocyte-derived DCs; format: cell-based, human
Procedure: (§4) Cell culture and ligand treatment—Monocytes (98% CD14+) were obtained from buffy coats by Ficoll gradient centrifugation and immunomagnetic cell separation using anti-CD14-conjugated microbeads (VarioMACS; Miltenyi Biotec). […] Cells were cultured for 5 or 6 days (unless otherwise indicated) and the IL-4 and GM-CSF addition was repeated at day 3. Ligands or vehicle control (50% DMSO/ethanol) were added to the cell culture from the first day on. MonoMac-6 (MM6) cells were a kind gift of E. Duda (Biological Research Center, Szeged, Hungary).

[17] = tested on: ABCA1; assay: RT-Q-PCR ABCA1 mRNA level in DCs; format: cell-based, human; settings: DCs cultured 24 h, 1 μM RSG or 1 μM T0901317
Procedure: as §4

[18] = tested on: ABCG1; assay: RT-Q-PCR ABCG1 mRNA level in DCs; format: cell-based, human; settings: DCs cultured 24 h, 1 μM RSG or 1 μM T0901317
Procedure: as §4

[19] = biological target: T1, PPARgamma:RXRalpha heterodimer (Mus musculus (PPARg); Homo sapiens …, UniProt P37238;P19793 P37238:1-505,P19793:1-462); assay: competition; cold mutant at x10 and x20 does not compete; settings: tags: T7 Quick TNT, full-length
[20] = biological target: T1, PPARgamma:RXRalpha heterodimer; assay: EMSA; supershift with anti-RXRa and anti-PPARg; competed by cold WT; settings: tags: T7 Quick TNT, full-length; label: 32P
[21] = biological target: T1, PPARgamma:RXRalpha heterodimer; assay: EMSA; supershift with both antibodies; some aspecific binding also in blank; settings: tags: T7 Quick TNT, full-length; label: 32P
[22] = ligand treated monocyte-derived DCs: 2.5 μM RSG, 100 nM GW347845X, 1 μM troglitazone, relative to 36B4

## GCCCTTCACTACTGTTGAC-d(TT) (sense GCCCTTCACTACTGTTGACTT; 3' dTdT overhang, further chemistry not given here) [PPARg-specific siRNA]
[1]
  Expression of PPARd: did not interfere
[2]
  Induction of FABP4 in siRNA treated MM6 cells: impaired induction
[3]
  Expression of endogenous PPARg: effectively inhibited
[4]
  Induction of ABCG2 in siRNA treated MM6 cells: impaired induction

## COc1ccc2c3c([nH]c2c1)[C@H](CC(C)C)N1C(=O)[C@H](CCC(=O)OC(C)(C)C)NC(=O)[C@@H]1C3 [KO143]
[5]; 1 μM KO143, 20 μM mitoxantrone
  Mitoxantrone extrusion by ABCG2 in activated cells: fully inhibited
[6]
  Cell surface expression of CD86 with ABCG2 inhibitor: did not change
[7]; PPARg activated DCs with 1 μM KO143, relative to cyclophilin A
  Transcript level of FABP4 with ABCG2 inhibitor: did not change
[8]; RSG treated DCs with KO143, 48 h
  Effect of ABCG2 inhibitor on protection against mitoxantrone: removed this protective effect
[9]
  Cell surface expression of CD1d with ABCG2 inhibitor: did not change
[10]
  Effect of ABCG2 inhibitor on reduced Hoechst dye accumulation: abolished the effect of the PPARg ligand treatment
[11]
  CD1a mRNA expression with ABCG2 inhibitor: reduced
[12]
  Cell surface expression of CD80 with ABCG2 inhibitor: did not change
[13]
  Cell surface expression of CD1a with ABCG2 inhibitor: slightly decreased

## CN(CCOc1ccc(CC2SC(=O)NC2=O)cc1)c1ccccn1 (centres unmarked) [rosiglitazone]
[14]
  Plasma concentration: 50-350 ng/ml and 100-1000 nM

## O=C1c2c(O)ccc(O)c2C(=O)c2c(NCCNCCO)ccc(NCCNCCO)c21 [mitoxantrone]
[5]; 20 μM mitoxantrone
  Mitoxantrone accumulation in control DCs: rapid
[8]; mitoxantrone 1.25 or 2.5 μg/ml, 48 h
  Cell viability of control DCs: induced cell death

## O=C(Nc1ccccc1)c1cc([N+](=O)[O-])ccc1Cl [GW9662]
[15]
  Cell surface expression of ABCG2 protein with PPARg antagonist: reduced
[16]; DCs, 2.5 μM RSG with 5 μM GW9662
  Effect of PPARg antagonist on RSG induction of ABCG2 mRNA: abolished the induction of ABCG2

## O=S(=O)(c1ccccc1)N(CC(F)(F)F)c1ccc(C(O)(C(F)(F)F)C(F)(F)F)cc1 [T0901317]
[17]
  ABCA1 mRNA expression: profound upregulation
[16]; DCs cultured 24 h, 1 μM T0901317
  ABCG2 mRNA expression with LXR specific agonist: did not affect
[18]
  ABCG1 mRNA expression: profound upregulation

## COC(=O)c1ccccc1N[C@@H](Cc1ccc(OCCc2nc(-c3ccccc3)oc2C)cc1)C(=O)O [GW347845X]
[16]; [22]
  ABCG2 mRNA expression: induced
[7]; [22]
  FABP4 mRNA expression: induced

B1: ABCG2 element B mut (dsDNA)
DNA 1: GGGCACATTGAGAAAGGTTAAGTGA
DNA 2: TCACTTAACCTTTCTCAATGTGCCC
[19]
  binding result: no binding

B2: ABCG2 element A WT (dsDNA)
DNA 1: GGGGTGGAGGGCAGAGGGCAATGGC
DNA 2: GCCATTGCCCTCTGCCCTCCACCCC
[20]
  binding result: binds

B3: ABCG2 element C mut (dsDNA)
DNA 1: GGTCATTTCGAGAGATGTTAGATGA
DNA 2: TCATCTAACATCTCTCGAAATGACC
[19]
  binding result: no binding

B4: ABCG2 element A mut (dsDNA)
DNA 1: GGGGTGGGCGAGAGAGGGCAATGGC
DNA 2: GCCATTGCCCTCTCTCGCCCACCCC
[19]
  binding result: no binding

B5: ABCG2 element B WT (dsDNA)
DNA 1: GGGCACAAGGTTAAAGGTTAAGTGA
DNA 2: TCACTTAACCTTTAACCTTGTGCCC
[21]
  binding result: binds

B6: ABCG2 element C WT (dsDNA)
DNA 1: GGTCATTAGGTCAGATGTTAGATGA
DNA 2: TCATCTAACATCTGACCTAATGACC
[21]
  binding result: binds
